Consider two compounds from paper PMC10587169, “Tuning aminopolycarboxylate chelators for efficient complexation of trivalent actinides” (Scientific Reports, 2023).

SMILES strings stand for the structures.

Assay [1] can be described thus: Competitive complexation liquid-liquid extraction with HDEHP. The class given is binding. As to conditions: competitive solvent extractions, T = 20 ± 1 °C, ±3σ. As for the experimental part:
(§1) Stability constants for the coordination of Eu^3+, Am^3+, Cm^3+, and Cf^3+ were also achieved by monitoring the suppression of liquid–liquid partitioning of the radiotracer due to the increasing presence of an aqueous complexant. Aqueous solutions were prepared containing sub-millimolar amounts of ligand while maintaining p[H^+] at 1.7, 1.8, 1.9, 2.0, and 2.1. Ionic strength was maintained at 2.00 M using sodium perchlorate. Aqueous complexation was balanced with the appropriate choice of HDEHP concentration in octane to allow accurate quantification of metal distribution. Non-aqueous phases were pre-equilibrated three times with 2.00 M NaClO4 at the corresponding p[H^+]. Preliminary time-dependent studies indicated the phase transfer equilibrium was attained for all measurements with H4octapa and H4pypa-peg (Figures S2 and S3 in the SI). For the mixtures traced with radioisotopes, the activity was measured using gamma spectroscopy (ORTEC GEM50P4 coaxial HPGe detector, DSPEC gamma spectrometer) for ^154Eu (123.07 keV), ^243Am (74.66 keV), and ^249Cf (388.17 keV) and liquid scintillation counting (Perkin Elmer Tri-Carb 3180 TR/SL) for ^248Cm. The ratio of radioisotope activity in the organic and aqueous phases defined the liquid–liquid distribution.
(§2) Liquid–liquid partitioning of trivalent f-elements was monitored in presence of H4octapa and H4pypa-peg using a strong liquid cation exchanger, bis–(2-ethylhexyl)phosphoric acid, HDEHP. This competitive solvent extraction methodology was used to determine the conditional stability constants for complexation of Eu^3+, Am^3+, Cm^3+, and Cf^3+ with H4octapa and H4pypa-peg. The metals, present at radiotracer concentrations ([…]), distributed between an organic phase containing HDEHP in n-octane and an aqueous phase containing the complexant at varying concentrations and aqueous acidity. The interpretation of the competitive complexation liquid–liquid distribution data (SI Tables S3 through S5 for H4octapa and S6 through S8 for H4pypa-peg) considered two complex formation equilibria as described by Eqs. (4) and (5). All collected distribution data indicated the average ligand-to-metal stoichiometry of 1.00 ± 0.04 for H4octapa and 1.00 ± 0.03 for H4pypa-peg (see SI Figures S10A and S11A). The partitioning of a trivalent metal ion as facilitated by a dimerized HDEHP cation exchanger can be expressed by Eq. (6) as quantified by the extraction constant, Kex (subscript org refers to organic-soluble species).6 M^3++3HDEHP2,org⇆MHDEHP23,org+3H^+Kex=MHDEHP23,orgH^+^3/M^3+HDEHP2,org^3
The stoichiometry for the extraction of trivalent metal ion by HDEHP was verified at 2.85 ± 0.03 by slope analysis study using ^249Cf^3+ as representative ion for H4octapa (SI Figure S10B) and 2.78 ± 0.13 for H4pypa-peg (SI Figure S11B). […]

Assay in assay [2]: as above
As to conditions: competitive solvent extractions, T = 20 ± 1 °C; for logβ101 (ML), Am3+ / logβ101 (ML), Eu3+ / logβ111 (MHL), Am3+ / logβ111 (MHL), Eu3+: I = 2.00 M sodium perchlorate; for logβ101 (ML), Am3+ / logβ101 (ML), Eu3+ / logβ111 (MHL), Am3+ / logβ111 (MHL), Eu3+ / logK111, Am3+ / logK111, Eu3+: ±3σ; for logβ101 (ML), Cm3+: p[H+] variation not monitored. It counts as binding. As for the experimental part:
as §1, §2
Substitution of equilibrium and extraction constants Eqs. (3)–(5) into Eq. (6) yields Eq. (8).8 DM=KexHDEHP2,org^3H^+^3/1+β101L^4-+β111L^4-H^+
At constant HDEHP concentration and p[H^+], when the distribution of the metal ion in absence of ligand is labelled as D^0, the liquid–liquid partitioning of the metal will adhere to Eq. (9),9 D^0/DM-1=β^appL^4- where β^app is the apparent stability constant as represented by β ^app = β101 + β111[H^+].
The Figs. 7A for H4octapa and Fig. 7C for H4pypa-peg show representative Eu^3+, Am^3+, and Cf^3+ sets of dependencies collected at constant aqueous acidities to determine β^app constants from the slopes of the error-weighted least-squares regression analyses. Equivalent dependencies were also collected at different p[H^+] conditions to study variation of β^app trends with p[H^+] as presented in Figs. 7B,D for H4octapa and H4pypa-peg, respectively. The distribution plots for Eu^3+, Am^3+, and Cf^3+ for H4pypa-peg clearly show variation with the changing aqueous acidity, which yielded good estimates for the conditional stability constants for the formation of ML^− and MHL(aq) (Table 5). The collected trends for Cf^3+ in the presence of H4octapa vary to a lesser extent, enabling the determination of β101 only. The p[H^+] variation was not monitored for the coordination of ^248Cm^3+ with both APC ligands due to limited availability of this radioisotope. […]

Take `O=C(O)CN(CCN(CC(=O)O)Cc1cccc(C(=O)O)n1)Cc1cccc(C(=O)O)n1` [H4octapa, 6,6′-((ethane-1,2-diylbis–((carboxymethyl)azanediyl))bis–(methylene))dipicolinic acid]: in assay [1] (I = 2.00 M sodium perchlorate), the “logβ101 (ML), Cf3+” value was 20.6 (2)^^. In addition, in assay [2], the “logβ101 (ML), Am3+” value is given as 19.3 (6); the “logβ101 (ML), Eu3+” value is listed as 18.59 (2); the “logβ111 (MHL), Am3+” value was “– 21.8 (2)^^”; the “logβ111 (MHL), Eu3+” value was 20.45 (2). Moreover, in assay [2], the “logβ101 (ML), Cm3+” value is on record as 19.4^^; the “logK111, Am3+” value is reported as “– 2.5 (6)^^”; the “logK111, Eu3+” value is recorded as 1.86 (2).
With `O=C(O)CN(Cc1cc(-c2cn(CCOCCOCCO)nn2)cc(CN(CC(=O)O)Cc2cccc(C(=O)O)n2)n1)Cc1cccc(C(=O)O)n1` [H4pypa-peg, 6,6'-((((4-(1-(2-(2-(2-hydroxyethoxy)ethoxy)ethyl)-1H-1,2,3-triazol-4-yl)pyridine-2,6-diyl)bis–(methylene))bis–((carboxymethyl)azanediyl))bis–(methylene)) dipicolinic acid], in assay [1] (I = 2.00 M sodium perchlorate), the “logβ101 (ML), Cf3+” value was 21.0 (4)^^ and the “logβ111 (MHL), Cf3+” value was 23.2 (2)^^. Besides, the “logK111, Cf3+” value in assay [1] was 2.2 (1)^^. In assay [2], the “logβ101 (ML), Am3+” value was 19.6 (1)^^; the “logβ101 (ML), Eu3+” value was 18.7 (2); the “logβ111 (MHL), Am3+” value was 21.8 (1)^^; the “logβ111 (MHL), Eu3+” value is listed as 20.6 (4). In assay [2], the “logβ101 (ML), Cm3+” value worked out at 19.8; the “logK111, Am3+” value was 2.2 (1)^^; the “logK111, Eu3+” value is 1.9 (4).
